Assay results taken from patent US20090054413A1, “Novel 5,6-Dihydropyrazolo[3,4-E] [L,4]Diazepin-4 (IH) -One Derivatives for the Treatment of Asthma and Chronic Obstructive Pulmonary Disease” (AstraZeneca AB, priority 2005, published 2009).

Each compound was assayed against recombinant Human Phosphodiesterase B2 (PDE4B2) (Homo sapiens, UniProt Q07343) (assay: Human Phosphodiesterase B2 Alpha Screen Assay). Conditions: recombinant human PDE4B2, cAMP substrate, 60 min at room temperature.
recombinant Human Phosphodiesterase B2 (PDE4B2), sequence (Q07343 1-564 isoform Q07343-2): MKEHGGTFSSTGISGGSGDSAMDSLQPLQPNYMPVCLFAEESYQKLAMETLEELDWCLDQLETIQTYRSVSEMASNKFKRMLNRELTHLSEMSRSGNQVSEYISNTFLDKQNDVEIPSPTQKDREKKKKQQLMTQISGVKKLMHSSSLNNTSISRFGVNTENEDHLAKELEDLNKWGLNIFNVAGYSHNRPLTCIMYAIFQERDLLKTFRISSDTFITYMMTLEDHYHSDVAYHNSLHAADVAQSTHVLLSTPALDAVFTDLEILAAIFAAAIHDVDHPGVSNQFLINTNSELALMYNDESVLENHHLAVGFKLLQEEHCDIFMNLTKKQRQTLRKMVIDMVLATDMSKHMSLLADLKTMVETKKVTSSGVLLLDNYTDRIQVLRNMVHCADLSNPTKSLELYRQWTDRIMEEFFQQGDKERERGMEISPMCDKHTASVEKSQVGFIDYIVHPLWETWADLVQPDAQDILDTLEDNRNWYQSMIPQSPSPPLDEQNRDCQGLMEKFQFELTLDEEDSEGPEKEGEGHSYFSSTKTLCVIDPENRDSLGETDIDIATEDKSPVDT
Type: biochemical
Experimental: Human Phosphodiesterase B2 Alpha Screen Assay
The assay uses recombinant Human Phosphodiesterase B2 (PDE4B2) produced in house (PrAZL0133), stored at −20° C. The substrate uses cAMP, part of the Alpha Screen cAMP kit (Perkin Elmer, Cat #6760625M), stored at 4° C. The Alpha Screen kit also includes biotinylated cAMP, acceptor and donor beads.
The assay additions were as follows: Test compounds and controls were added to white 384-well flat-bottom plates (Greiner, Cat #781075), 0.2 μl in 100% DMSO, followed by 10 μl PDE4B2 in reaction buffer. The reaction buffer constitution was: 50 mM Tris (pH 7.5), 8.3 mM MgCl2, 1.7 mM EGTA and 0.01% (w/v) Brij®35. The enzyme and the compounds were incubated at room temperature for 15 minutes. Then 10 μl cAMP in reaction buffer was added. The assay was stopped after 60 minutes incubation at room temperature by adding 10 μl acceptor beads in detection buffer with 40 mM EDTA. The detection buffer constitution was: 5 mM Tris (pH 7.5), 0.1% (w/v) BSA and 0.1% (v/v) Tween 20. This addition followed by an addition of 10 μl donor beads in detection buffer, with biotinylated cAMP. The plates were then incubated, dark at room temperature, for 5 hours followed by measurement on a Fusion™-α analyser. IC50 values (presented in Table 1) were determined using Xlfit curve fitting using model 205.
In the case of `CCc1nn(C2CCCC2)c2c1C(=O)NCC(c1ccc(C)cc1)=N2` [Example 9, 1-Cyclopentyl-3-ethyl-7-(4-methylphenyl)-5,6-dihydropyrazolo[3,4-e][1,4]diazepin-4(1H)-one], the IC50 is reported as 0.61 nM.
Work on `CCc1nn(C2CCCC2)c2c1C(=O)NCC(c1ccc(O)c(C(=O)O)c1)=N2` [Example 27, 5-(1-Cyclopentyl-3-ethyl-4-oxo-1,4,5,6-tetrahydropyrazolo[3,4-e][1,4]diazepin-7-yl)-2-hydroxybenzoic acid] yielded an IC50 of 0.52 nM.
In the case of `CCc1nn(C2CCCC2)c2c1C(=O)NCC(c1ccco1)=N2` [Example 17, 1-Cyclopentyl-3-ethyl-7-(2-furyl)-5,6-dihydropyrazolo[3,4-e][1,4]diazepin-4(1H)-one], the IC50 is reported as 2.16 nM.
Compound `Cc1nn(C2CCCC2)c2c1C(=O)NCC(c1ccccc1)=N2` [Example 36, 1-Cyclopentyl-3-methyl-7-phenyl-5,6-dihydropyrazolo[3,4-e][1,4]diazepin-4(1H)-one] has an IC50 of 9.49 nM.
`CCc1nn(C2CC[S+]([O-])CC2)c2c1C(=O)NCC(c1ccccc1)=N2` (stereo not drawn) [Example 34, 3-Ethyl-1-(1-oxidotetrahydro-2H-thiopyran-4-yl)-7-phenyl-5,6-dihydropyrazolo[3,4-e][1,4]diazepin-4(1H)-one] showed an IC50 of 99.1 nM.
With `CCc1nn(C2CCCC2)c2c1C(=O)NCC(c1ccccc1)N2` (stereo not drawn) [Example 30, 1-Cyclopentyl-3-ethyl-7-phenyl-5,6,7,8-tetrahydropyrazolo[3,4-e][1,4]diazepin-4(1H)-one] the IC50 was 158 nM.
`CCc1nn(C2CCCC2)c2c1C(=O)NCC(c1cc(OC)ccc1OC)=N2` [Example 14, 1-Cyclopentyl-7-(2,5-dimethoxyphenyl)-3-ethyl-5,6-dihydropyrazolo[3,4-e][1,4]diazepin-4(1H)-one] gave an IC50 of 0.5 nM.
Work on `CCc1nn(C2CCSCC2)c2c1C(=O)NCC(c1ccccc1)=N2` [Example 33, 3-Ethyl-7-phenyl-1-tetrahydro-2H-thiopyran-4-yl-5,6-dihydropyrazolo[3,4-e][1,4]diazepin-4(1H)-one] yielded an IC50 of 3.9 nM.
In the case of `CCc1nn(C2CCCC2)c2c1C(=O)NCC(c1ccc(F)cc1)=N2` [Example 21, 1-Cyclopentyl-3-ethyl-7-(4-fluorophenyl)-5,6-dihydropyrazolo[3,4-e][1,4]diazepin-4(1H)-one], the IC50 is reported as 1.05 nM.
`CCc1nn(C2CCCC2)c2c1C(=O)NCC(c1ccc(O)c(C(=O)OC)c1)=N2` [Example 11, Methyl 5-(1-cyclopentyl-3-ethyl-4-oxo-1,4,5,6-tetrahydropyrazolo[3,4-e][1,4]diazepin-7-yl)-2-hydroxybenzoate] was tested, and the IC50 was 0.59 nM.
`CCc1nn(C2CCCC2)c2c1C(=O)NCC(c1ccc(OC(F)(F)F)cc1)=N2` [Example 22, 1-Cyclopentyl-3-ethyl-7-[4-(trifluoromethoxy)phenyl]-5,6-dihydropyrazolo[3,4-e][1,4]diazepin-4(1H)-one] showed an IC50 of 4.16 nM.
Work on `CCc1nn(C2CCCC2)c2c1C(=O)NCC(c1ccc(OCc3ccccc3)cc1)=N2` [Example 15, 7-[4-(Benzyloxy)phenyl]-1-cyclopentyl-3-ethyl-5,6-dihydropyrazolo[3,4-e][1,4]diazepin-4(1H)-one] yielded an IC50 of 0.9 nM.
Work on `CCc1nn(C2CCCC2)c2c1C(=O)NCC(c1ccc(C#N)cc1)=N2` [Example 23, 4-(1-Cyclopentyl-3-ethyl-4-oxo-1,4,5,6-tetrahydropyrazolo[3,4-e][1,4]diazepin-7-yl)benzonitrile] yielded an IC50 of 1.21 nM.
`CCc1nn(-c2ccccc2)c2c1C(=O)NCC(c1ccccc1)=N2` [Example 6, 3-Ethyl-1,7-diphenyl-5,6-dihydropyrazolo[3,4-e][1,4]diazepin-4(1H)-one] gave an IC50 of 11 nM.
`CCc1nn(C2CCCC2)c2c1C(=O)NCC(C(C)(C)C)=N2` [Example 18, 7-tert-Butyl-1-cyclopentyl-3-ethyl-5,6-dihydropyrazolo[3,4-e][1,4]diazepin-4(1H)-one] was tested, and the IC50 was 0.53 nM.
With `CCc1nn(C2CCS(=O)(=O)C2)c2c1C(=O)NCC(c1ccccc1)=N2` (stereo not drawn) [Example 32, 1-(1,1-Dioxidotetrahydrothien-3-yl)-3-ethyl-7-phenyl-5,6-dihydropyrazolo[3,4-e][1,4]diazepin-4(1H)-one] the IC50 was 5.8 nM.
With `CCc1nn(-c2cccc([N+](=O)[O-])c2)c2c1C(=O)NCC(c1ccccc1)=N2` [Example 4, 3-ethyl-1-(3-nitrophenyl)-7-phenyl-5,6-dihydropyrazolo[3,4-e][1,4]diazepin-4(1H)-one] the IC50 was 4.8 nM.
Work on `CCc1nn(C2CCCC2)c2c1C(=O)NCC(c1ccc(OC)c(OC)c1)=N2` [Example 7, 1-Cyclopentyl-7-(3,4-dimethoxyphenyl)-3-ethyl-5,6-dihydropyrazolo[3,4-e][1,4]diazepin-4(1H)-one] yielded an IC50 of 1.47 nM.
For `CCc1nn(C2CCS(=O)(=O)CC2)c2c1C(=O)NCC(c1ccccc1)=N2` [Example 35, 1-(1,1-Dioxidotetrahydro-2H-thiopyran-4-yl)-3-ethyl-7-phenyl-5,6-dihydropyrazolo[3,4-e][1,4]diazepin-4(1H)-one], the IC50 was 40.3 nM.
`CCc1nn(C2CCCC2)c2c1C(=O)NCC(CCC(=O)O)=N2` [Example 28, 3-(1-Cyclopentyl-3-ethyl-4-oxo-1,4,5,6-tetrahydropyrazolo[3,4-e][1,4]diazepin-7-yl)propanoic acid] was tested, and the IC50 was 65.3 nM.
For `CCc1nn(C2CCCC2)c2c1C(=O)NCC(CCC(=O)NCCN(C)C)=N2` [Example 29, 3-(1-Cyclopentyl-3-ethyl-4-oxo-1,4,5,6-tetrahydropyrazolo[3,4-e][1,4]diazepin-7-yl)-N-[2-(dimethylamino)ethyl]propanamide], the IC50 was 4480 nM.
Work on `CCc1nn(C2CCCC2)c2c1C(=O)NCC(c1ccccc1)=N2` [Example 1, 1-Cyclopentyl-3-ethyl-7-phenyl-5,6-dihydropyrazolo[3,4-e][1,4]diazepin-4(1H)-one] yielded an IC50 of 0.33 nM.
`CCc1nn(C2CCCC2)c2c1C(=O)N(C)CC(c1ccccc1)=N2` [Example 26, 1-Cyclopentyl-3-ethyl-5-methyl-7-phenyl-5,6-dihydropyrazolo[3,4-e][1,4]diazepin-4(1H)-one] was tested, and the IC50 was 103 nM.
`CSc1nn(-c2ccccc2)c2c1C(=O)NCC(c1ccccc1)=N2` [Example 31, 3-(Methylthio)-1,7-diphenyl-5,6-dihydropyrazolo[3,4-e][1,4]diazepin-4(1H)-one] showed an IC50 of 426 nM.
Work on `CCc1nn(C2CCCC2)c2c1C(=O)NCC(c1ccc(S(C)(=O)=O)cc1)=N2` [Example 24, 1-Cyclopentyl-3-ethyl-7-[4-(methylsulfonyl)phenyl]-5,6-dihydropyrazolo[3,4-e][1,4]diazepin-4(1H)-one] yielded an IC50 of 3.92 nM.
Compound `CCc1nn(C2CCCC2)c2c1C(=O)NC(c1ccccc1)C(C)=N2` (stereo not drawn) [Example 25, 1-Cyclopentyl-3-ethyl-7-methyl-6-phenyl-5,6-dihydropyrazolo[3,4-e][1,4]diazepin-4(1H)-one] has an IC50 of 385 nM.
Compound `CCc1nn(C2CCCC2)c2c1C(=O)NCC(c1ccc(Cl)cc1)=N2` [Example 12, 7-(4-Chlorophenyl)-1-cyclopentyl-3-ethyl-5,6-dihydropyrazolo[3,4-e][1,4]diazepin-4(1H)-one] has an IC50 of 0.57 nM.
Work on `CCc1nn(C2CCCC2)c2c1C(=O)NCC(c1ccc(F)c(F)c1)=N2` [Example 13, 7-(3,4-Difluorophenyl)-1-cyclopentyl-3-ethyl-5,6-dihydropyrazolo[3,4-e][1,4]diazepin-4(1H)-one] yielded an IC50 of 0.73 nM.
Compound `CCc1nn(-c2ccc(F)cc2)c2c1C(=O)NCC(c1ccccc1)=N2` [Example 3, 3-ethyl-1-(4-fluorophenyl)-7-phenyl-5,6-dihydropyrazolo[3,4-e][1,4]diazepin-4(1H)-one] has an IC50 of 6.1 nM.
For `CCc1nn(C2CCCC2)c2c1C(=O)NCC(c1ccc(Br)cc1)=N2` [Example 8, 7-(4-Bromophenyl)-1-cyclopentyl-3-ethyl-5,6-dihydropyrazolo[3,4-e][1,4]diazepin-4(1H)-one], the IC50 was 0.84 nM.
`CCc1nn(C2CCCC2)c2c1C(=O)NCC(c1ccccc1OC)=N2` [Example 10, 1-Cyclopentyl-3-ethyl-7-(2-methoxyphenyl)-5,6-dihydropyrazolo[3,4-e][1,4]diazepin-4(1H)-one] gave an IC50 of 0.91 nM.
Compound `CCc1nn(C2CCCC2)c2c1C(=O)NCC(CCC(=O)OC)=N2` [Example 20, Methyl 3-(1-cyclopentyl-3-ethyl-4-oxo-1,4,5,6-tetrahydropyrazolo[3,4-e][1,4]diazepin-7-yl)propanoate] has an IC50 of 28.7 nM.
`CCc1nn(C2CCCC2)c2c1C(=O)NCC(c1cccc(OC)c1)=N2` [Example 19, 1-Cyclopentyl-3-ethyl-7-(3-methoxyphenyl)-5,6-dihydropyrazolo[3,4-e][1,4]diazepin-4(1H)-one] gave an IC50 of 0.55 nM.
`CCc1nn(C2CCCC2)c2c1C(=O)NCC(c1ccc(OC)cc1)=N2` [Example 2, 1-cyclopentyl-3-ethyl-7-(4-methoxyphenyl)-5,6-dihydropyrazolo[3,4-e][1,4]diazepin-4(1H)-one] gave an IC50 of 0.98 nM.
For `CCc1nn(-c2ccc(S(C)(=O)=O)cc2)c2c1C(=O)NCC(c1ccccc1)=N2` [Example 5, 3-ethyl-1-[4-(methylsulfonyl)phenyl]-7-phenyl-5,6-dihydropyrazolo[3,4-e][1,4]diazepin-4(1H)-one], the IC50 was 43 nM.
In the case of `CCc1nn(C2CCCC2)c2c1C(=O)NCC(c1ccc3c(c1)OCCCO3)=N2` [Example 16, 1-Cyclopentyl-7-(3,4-dihydro-2H-1,5-benzodioxepin-7-yl)-3-ethyl-5,6-dihydropyrazolo[3,4-e][1,4]diazepin-4(1H)-one], the IC50 is reported as 0.43 nM.
